Converted amounts (≈) assume the structure as drawn.
Columns and labels:
[1] = tested on: Mycobacterium tuberculosis strain EH 4.0 (361.269); test: Test 4: MIC determination against M. tuberculosis, resazurin fluorescence read-out, different strain; type: cell-based; details: read-out: pIC50 (converted)
Excerpt: Test 4 (See Also Test 1 Above; in this Test a Different Strain of Mycobacterium tuberculosis Strain is Employed)
Appropriate solutions of experimental and reference compounds were made in 96 well plates with 7H9 medium. Samples of Mycobacterium tuberculosis strain EH 4.0 (361.269) were taken from cultures in stationary growth phase. These were first diluted to obtain an optical density of 0.3 at 600 nm wavelength and then diluted 1/100, resulting in an inoculum of approximately 5×10 exp5 colony forming units per well. Plates were incubated at 37° C. in plastic bags to prevent evaporation. After 7 days, resazurin was added to all wells.

[2] = tested on: Mycobacterium tuberculosis strain H37Rv; test: Test 1: MIC determination against M. tuberculosis, resazurin fluorescence read-out; type: cell-based; details: Test 1, strain H37Rv
[3] = tested on: MDR tuberculosis; details: stated in J. Medicinal Chemistry, 2014, 57 (12); cited from earlier work
[4] = tested on: replicating and non-replicating bacteria; details: stated in J. Medicinal Chemistry, 2014, 57 (12); cited from earlier work
[5] = tested on: M. tuberculosis H37Rv; details: strain H37Rv, inside macrophages; cited from earlier work

SMILES | IC50 [1] [µM] | other results
Cc1nc2sccn2c1C(=O)NCc1ccc2nc(N3CCC(c4ccc(OC(F)(F)F)cc4)CC3)ccc2c1 [Compound 7] | 0.2 | 
CCc1nc2ncc(Cl)cn2c1C(=O)NCc1ccc2nc(N3CC4(CC(c5ccc(OC(F)(F)F)cc5)C4)C3)ccc2c1 [Compound 1] | 0.0398 | 
CCc1c(C(=O)NCc2ccc3nc(N4CCC(c5ccc(OC(F)(F)F)cc5)CC4)ccc3c2)c2cc(Cl)ccc2n1C [Compound 21] | > 12.6 | 
O=C(NCc1ccc2nc(N3CCC(c4ccc(OC(F)(F)F)cc4)CC3)ccc2c1)c1cc2c([nH]1)CCCC2 [Compound 23] | > 12.6 | 
CCc1c(C(=O)NCc2ccc3nc(N4CC(c5ccccc5)C4)ccc3c2)c2cc(Cl)cnc2n1C [Compound 13] | > 12.6 | 
CCc1nc2ccc(Cl)cn2c1C(=O)NCc1ccc2nc(N3CC4(CC(c5ccc(OC(F)(F)F)cc5)C4)C3)ccc2c1 [Compound 2] | 0.2 | IC50 ([2]; first test): 0.676 µM; IC50 ([2]; repeated (2nd) test): 0.692 µM; IC50 ([2]; repeated (3rd) test): 0.589 µM
CCc1nc2n(c1C(=O)NCc1ccc3nc(N4CCN(c5ccc(OC(F)(F)F)cc5)CC4)ccc3c1)CCCC2 [Compound 10] | 0.126 | 
CCc1nc2ccc(Cl)cn2c1C(=O)NCc1ccc2nc(N3CCC(F)(F)CC3)ccc2c1 [Compound 24] | 0.00631 | 
Cc1nn2ccccc2c1C(=O)NCc1ccc2nc(N3CCN(c4ccc(OC(F)(F)F)cc4)CC3)ccc2c1 [Compound 27] | 0.794 | 
CCc1nc2ccc(Cl)cn2c1C(=O)NCc1ccc2ncc(N(C)Cc3ccc(OC(F)(F)F)cc3)cc2c1 [Compound 20] | 0.794 | 
CCc1nc2n(c1C(=O)NCc1ccc3nc(N4CCC(c5ccc(OC(F)(F)F)cc5)CC4)ccc3c1)CCN(C)C2 [Compound 8] | 0.158 | 
Cc1nc2sccn2c1C(=O)NCc1ccc2nc(N(C)CCc3ccc(OC(F)(F)F)cc3)ccc2c1 [Compound 11] | 0.355 | 
CCc1nc2ccc(Cl)cn2c1C(=O)NCc1ccc2cc(N(C)Cc3ccc(OC(F)(F)F)cc3)cnc2c1 [Compound 18] | 1 | 
CCc1c(C(=O)NCc2ccc3nc(N4CC5(CC(c6ccccc6)C5)C4)ccc3c2)c2cc(Cl)cnc2n1C [Compound 12] | > 12.6 | 
CCc1nc2ccc(Cl)cn2c1C(=O)NCc1ccc2nc(N3CC4(CC(F)C4)C3)ccc2c1 [Compound 25] | 0.178 | 
Cc1nc2sccn2c1C(=O)NCc1ccc2nc(N3CCN(c4ccc(OC(F)(F)F)cc4)CC3)ccc2c1 [Compound 9] | 0.141 | 
CCc1nc2ccc(Cl)cn2c1C(=O)NCc1ccc2nc(N3CC4CC(F)CC4C3)ccc2c1 (centres unmarked) [Compound 4] | 0.0316 | 
CCc1nc2ccc(Cl)cn2c1C(=O)NCc1ccc2nc(N(C)Cc3ccc(OC(F)(F)F)cc3)cnc2c1 [Compound 15] | 0.631 | 
Cc1nn2ccccc2c1C(=O)NCc1ccc2nc(N3CCC(c4ccc(OC(F)(F)F)cc4)CC3)ccc2c1 [Compound 26] | 0.398 | 
Cc1nc2sccn2c1C(=O)NCc1ccc2nc(N(C)Cc3ccc(OC(F)(F)F)cc3)ccc2c1 [Compound 19] | 0.282 | 
CCc1nc2ccc(Cl)cn2c1C(=O)NCc1ccc(N2CCC(c3ccc(OC(F)(F)F)cc3)CC2)cc1 [Compound Q203] |  | activity against MDR tuberculosis [3]: activity against MDR tuberculosis; activity against replicating and non-replicating bacteria [4]: highly active; MIC50 [5]: 0.28 nM (≈ 0.156 ng/mL)
CCc1c(C(=O)NCc2ccc3nc(N4CCC(c5ccc(OC(F)(F)F)cc5)CC4)ccc3c2)c2cc(Cl)cnc2n1C [Compound 22] | > 12.6 | 
CCc1nc2ccc(Cl)cn2c1C(=O)NCc1ccc2nc(N3CCC(c4ccc(OC(F)(F)F)cc4)CC3)ccc2c1 [Compound 3] | 0.0501 | 
CCc1nc2ccc(Cl)cn2c1C(=O)NCc1ccc2nc(N(C)Cc3ccc(OC(F)(F)F)cc3)ccc2c1 [Compound 17] | 0.0794 | 
